In patent US9322066B2, “Predictors for cancer treatment” (priority 2011, dated 2016):

Assays:
[1] = system: relapsed or refractory, rituximab-naive or -sensitive follicular B-cell NHL; assay: Overall survival (OS), Vc-R vs rituximab study, by biomarker; type: in vivo, human; set-up: OS Median: unit not given here
Text: (§1) Non-Hodgkin lymphoma (NHL) encompasses several unique malignant lymphoid disease entities that vary in clinical behavior, morphologic appearance, immunologic, and molecular phenotype. […] A randomized, open-label, active-controlled, multicenter, multinational, prospective study to compare the efficacy and safety of the combination of bortezomib and rituximab (Vc-R) to single-agent rituximab in subjects who have relapsed or refractory, rituximab-naive or -sensitive follicular B-cell NHL was performed.
(§2) Subjects were centrally randomized to Treatment Groups A (Vc-R) or B (rituximab) in a 1:1 ratio taking into account the following stratification factors: • Follicular Lymphoma International Prognostic Index (FLIPI) score (low [0 or 1 factor], intermediate [2 factors], high [≧3 factors]); • Prior rituximab therapy (yes, no); • Time since last dose of anti-lymphoma therapy (≦1 year, >1 year); • Region (United States/Canada, European Union, Rest of World).
(§3) The following clinical endpoints were included in the analysis within each treatment group and an overall comparison was made with the biomarker-related endpoints: Progression-free survival, defined as the interval between the date of randomization and the date of progressive disease (PD) or death, whichever is first reported in the ITT population; overall survival; overall response rate (complete response [CR]+CR unconfirmed [CRu]+partial response [PR]); overall CR rate (CR+CRu); duration of response; time to next anti-lymphoma therapy; and treatment free interval.
Overall Survival was measured from the date of randomization to the date of the subject's death. If the subject was alive or the vital status was unknown, it was censored at the date that the subject was last known to be alive. Similar to PFS and TTP, the Cox proportional hazard model was used to evaluate the association between biomarker endpoints and OS. Kaplan-Meier survival curves were presented. Analyses were done for the population overall and by treatment group, and each of these analyses was stratified by the covariates used for PFS.

[2] = system: relapsed or refractory, rituximab-naive or -sensitive follicular B-cell NHL; assay: Duration of response, Vc-R vs rituximab study, by biomarker; type: in vivo, human
Text: as §1, §2, §3
Comparison of the response rates between the treatment groups was conducted using the Fishers Exact Test. Duration of response, time to response, and time to clinical relapse were analyzed descriptively, where appropriate, and the biomarker subset was compared (if appropriate, determined as per the initial analysis) to the overall clinical cohort, by treatment group and overall. An exploratory estimate of the response rates in each treatment group was presented with 2-sided 95% confidence intervals. The number and percentage of subjects falling into each response category was descriptively tabulated.

[3] = 20S % POSITIVE CYTOPLASMIC SIGNAL: 95-100, 2 Prior Lines of Therapy
[4] = 20S % POSITIVE CYTOPLASMIC SIGNAL: 95-100, Ann Arbor Stage IV
[5] = 20S INTENSITY CYTOPLASMIC SIGNAL: ≦2+, Intermediate FLIPI Score
[6] = BCL2/P59L: MD, Ann Arbor Stage IV
[7] = BCL2/P59L: MD, High FLIPI Score
[8] = BCL2/P59L: MD, High Tumor Burden
[9] = BCL2/P59L: MD, No Prior Rituximab Therapy
[10] = CD68 OVERALL POSITIVE: 26-50, 2 Prior Lines of Therapy
[11] = CD68 POSITIVE PERIFOLLICULAR: 26-50, 2 Prior Lines of Therapy
[12] = NOTCH/P2513L: MD, >65 years old
[13] = P27 % NUCLEI POSITIVE: 60-70, Male
[14] = PSMB5/R24C: C/T, Ann Arbor Stage IV
[15] = PSMB5/R24C: C/T, Intermediate FLIPI Score
[16] = 20S % NUCLEAR STAINING: 30-50, Prior Rituximab Therapy
[17] = 20S INTENSITY CYTOPLASMIC SIGNAL: ≧3+, Intermediate FLIPI Score
[18] = 20S INTENSITY CYTOPLASMIC SIGNAL: ≧3+, No Prior Rituximab Therapy
[19] = 20S INTENSITY CYTOPLASMIC SIGNAL: ≧3+, ≦65 years old
[20] = BCL2/ A43G: MND, Ann Arbor Stage IV
[21] = BCL2/ E29K: MND, Ann Arbor Stage IV
[22] = BCL2/ P46L: MD, >1 year since last anti- lymphoma treatment
[23] = BCL2/ P59L: MD, 1 Prior Line of Therapy
[24] = BCL2/ P59L: MD, >1 year since last anti- lymphoma treatment
[25] = BCL2/ P59L: MD, Prior Rituximab Therapy
[26] = BCL2/ R106H: MND, Ann Arbor Stage IV
[27] = CD68 OVERALL POSITIVE: 0-25, High FLIPI Score
[28] = CD68 OVERALL POSITIVE: 0-25, ≦1 year since last anti-lymphoma treatment
[29] = CD68 OVERALL POSITIVE: 51-75, Male
[30] = CD68 OVERALL POSITIVE: >75, Male
[31] = CD68 POSITIVE FOLLICULAR: 0-25, Female
[32] = CD68 POSITIVE PERIFOLLICULAR: >75, Male
[33] = NOTCH/ P2513L: MND, >65 years old
[34] = NOTCH/ X28INS: MND, Ann Arbor Stage IV
[35] = NOTCH/ X28INS: MND, ≦65 years old
[36] = P27 % NUCLEI POSITIVE: 60-70, High FLIPI Score
[37] = P65 INTENSITY CYTOPLASMIC SIGNAL: ≦1+, Ann Arbor Stage III

rituximab
OS Evt/N ([1]; 20S % POSITIVE CYTOPLASMIC SIGNAL: 0-20, 2 Prior Lines of Therapy): 1/10 | OS Evt/N ([1]; 20S % POSITIVE CYTOPLASMIC SIGNAL: 0-20, Ann Arbor Stage IV): 1/15 | OS Evt/N [1, 3]: 14/35 | OS Median [1, 3]: 1205 | OS Evt/N [1, 4]: 25/56 | OS Median [1, 4]: 1205 | Median OS (Vc − R vs R) ([1]; 20S INTENSITY CYTOPLASMIC SIGNAL >=3+ + P65 % POSITIVE CYTOPLASMIC SIGNAL <=90%, Selected (biomarker positive)): 717 days | OS Evt/N [1, 5]: 2/48 | OS Evt/N ([1]; 20S INTENSITY CYTOPLASMIC SIGNAL: ≧3+, Male): 10/27 | Median OS (Vc − R vs R) ([1]; AGEGRP >65 + CD68 POSITIVE FOLLICULAR >50, Selected (biomarker positive)): 971 days | OS Evt/N [1, 6]: 5/5 | OS Median [1, 6]: 174 | OS Evt/N ([1]; BCL2/P59L: MD, Female): 6/8 | OS Median ([1]; BCL2/P59L: MD, Female): 536 | OS Evt/N [1, 7]: 6/6 | OS Median [1, 7]: 282 | OS Evt/N [1, 8]: 5/6 | OS Median [1, 8]: 282 | OS Evt/N [1, 9]: 5/5 | OS Median [1, 9]: 174 | OS Evt/N ([1]; BCL2/P59L: MD, Rest of World): 4/5 | OS Median ([1]; BCL2/P59L: MD, Rest of World): 174 | OS Evt/N ([1]; BCL2/R106H: MD, Male): 8/10 | OS Median ([1]; BCL2/R106H: MD, Male): 318 | OS Evt/N [1, 10]: 13/26 | OS Median [1, 10]: 1205 | OS Evt/N ([1]; CD68 OVERALL POSITIVE: 26-50, No High Tumor Burden): 14/54 | OS Evt/N ([1]; CD68 OVERALL POSITIVE: 51-75, Ann Arbor Stage III): 2/21 | OS Evt/N ([1]; CD68 POSITIVE FOLLICULAR: 0-25, No Prior Rituximab Therapy): 11/36 | OS Evt/N ([1]; CD68 POSITIVE FOLLICULAR: 0-25, ≦65 years old): 14/46 | OS Evt/N [1, 11]: 7/16 | OS Median [1, 11]: 1205 | OS Evt/N ([1]; CD68 POSITIVE PERIFOLLICULAR: 26-50, Male): 11/30 | OS Evt/N ([1]; CD68 POSITIVE PERIFOLLICULAR: 26-50, No High Tumor Burden): 10/41 | Median OS (Vc − R vs R) ([1]; FLIPI High + CD68 POSITIVE FOLLICULAR 0-50, Selected): 1263 days | Median OS (Vc − R vs R) ([1]; FLIPI High + P27 % NUCLEI POSITIVE 0-70, Selected): 1111 days | Median OS (Vc − R vs R) ([1]; FLIPI High + P27 SIGNAL INTENSITY >=2+, Selected): 1263 days | OS Evt/N [1, 12]: 8/13 | OS Median [1, 12]: 795 | OS Evt/N ([1]; NOTCH/P2513L: MD, No High Tumor Burden): 7/26 | OS Evt/N ([1]; NOTCH/Q2460X: MD, Male): 3/3 | OS Median ([1]; NOTCH/Q2460X: MD, Male): 595 | OS Evt/N ([1]; NOTCH/X28DEL: MND, 2 Prior Lines of Therapy): 20/56 | OS Evt/N ([1]; NOTCH/X28DEL: MND, Male): 26/75 | OS Evt/N ([1]; P27 % NUCLEI POSITIVE: 0-20, No High Tumor Burden): 3/29 | OS Evt/N [1, 13]: 4/12 | OS Evt/N ([1]; P65 % POSITIVE CYTOPLASMIC SIGNAL: >90%, 2 Prior Lines of Therapy): 19/52 | OS Evt/N ([1]; P65 INTENSITY CYTOPLASMIC SIGNAL: ≦1+, Intermediate FLIPI Score): 1/17 | OS Evt/N ([1]; P65 INTENSITY CYTOPLASMIC SIGNAL: ≧2+, 2 Prior Lines of Therapy): 19/55 | OS Evt/N [1, 14]: 9/15 | OS Median [1, 14]: 717 | OS Evt/N [1, 15]: 4/10 | OS Median [1, 15]: 971 | OS Evt/N ([1]; PSMB9/R60H: A/A, 3 Prior Lines of Therapy): 1/6 | Median OS (Vc-R vs R) ([1]; SEX MALE + 20S % NUCLEAR STAINING 30-90, Selected): 1263 days | Median OS (Vc-R vs R) ([1]; Selected: FLIPI High and P65 % POSITIVE CYTOPLASMIC SIGNAL >90%): 1263 days | Duration of response Evt/N [2, 16]: 9/13 | Duration of response Median [2, 16]: 356 | Duration of response Evt/N [2, 5]: 9/25 | Duration of response Median [2, 5]: 554 | Duration of response Evt/N [2, 17]: 17/25 | Duration of response Median [2, 17]: 352 | Duration of response Evt/N [2, 18]: 22/32 | Duration of response Median [2, 18]: 427 | Duration of response Evt/N [2, 19]: 28/39 | Duration of response Median [2, 19]: 417 | Duration of response Evt/N [2, 20]: 23/28 | Duration of response Median [2, 20]: 353 | Duration of response Evt/N [2, 21]: 21/26 | Duration of response Median [2, 21]: 344 | Duration of response Evt/N ([2]; BCL2/ E29K: MND, ≦65 years old): 32/49 | Duration of response Median ([2]; BCL2/ E29K: MND, ≦65 years old): 353 | Duration of response Evt/N [2, 22]: 5/5 | Duration of response Median [2, 22]: 356 | Duration of response Evt/N [2, 23]: 2/2 | Duration of response Median [2, 23]: 345 | Duration of response Evt/N [2, 24]: 3/4 | Duration of response Median [2, 24]: 330 | Duration of response Evt/N ([2]; BCL2/ P59L: MD, No Subgroup): 4/5 | Duration of response Median ([2]; BCL2/ P59L: MD, No Subgroup): 343 | Duration of response Evt/N [2, 25]: 3/3 | Duration of response Median [2, 25]: 330 | Duration of response Evt/N ([2]; BCL2/ P59L: MD, White): 4/5 | Duration of response Median ([2]; BCL2/ P59L: MD, White): 343 | Duration of response Evt/N [2, 26]: 21/26 | Duration of response Median [2, 26]: 352 | Duration of response Evt/N [2, 27]: 7/11 | Duration of response Median [2, 27]: 423 | Duration of response Evt/N [2, 28]: 5/7 | Duration of response Median [2, 28]: 354 | Duration of response Evt/N [2, 29]: 5/7 | Duration of response Median [2, 29]: 279 | Duration of response Evt/N [2, 30]: 3/3 | Duration of response Median [2, 30]: 284 | Duration of response Evt/N [2, 31]: 12/20 | Duration of response Median [2, 31]: 354 | Duration of response Evt/N [2, 32]: 3/3 | Duration of response Median [2, 32]: 284 | Duration of response Evt/N [2, 33]: 10/23 | Duration of response Median [2, 33]: 948 | Duration of response Evt/N [2, 34]: 26/31 | Duration of response Median [2, 34]: 353 | Duration of response Evt/N [2, 35]: 44/64 | Duration of response Median [2, 35]: 369 | Duration of response Evt/N [2, 36]: 7/9 | Duration of response Median [2, 36]: 337 | Duration of response Evt/N [2, 13]: 5/6 | Duration of response Median [2, 13]: 281 | Duration of response Evt/N [2, 37]: 2/4 | Duration of response Median [2, 37]: 173 | Duration of response Evt/N ([2]; PSMB5/R24C: C/C, Ann Arbor Stage II): 4/18 | Duration of response Evt/N ([2]; PSMB9/R60H: A/G, Male): 10/11 | Duration of response Median ([2]; PSMB9/R60H: A/G, Male): 211
